“And” between values parts separate entries of the source, which are not always exact repeats. Identical values can stand only once.
Key:
[1] = Photostabilizing power, PVC plates exposed to the sun, GARDNER scale; details: exposure to sun 6h
Method: The photostabilizing power of the compounds of the invention was studied by exposing to the sun polyvinyl chloride plates which had been stabilized either by a dihydropyridine of the invention or by 2-phenyl-indole, or again by 2-(3'-methoxy-4'-hydroxy)-indole. This last product is an extremely valuable thermostabilizer for thermoplastic resins and is described in British Pat. No. 1,489,685.
The resin given hereunder was prepared by mixing on cylinders at 160° C.:
The plates of stabilized polyvinyl chloride, together with a plate which had not been stabilized, were stood in the sun under the same conditions and at the same time. Their colour was measured after 6 hours and 12 hours of exposure.
The coloration of the plates was determined according to two methods:
On the plates themselves, following the GARDNER scale, as in the section on thermostability,
The sign + means that the coloration lies between the lower unit and the upper half-unit. Thus, 3+ means that the coloration lies between 3 and 3.5. Similarly, the sign - means that the coloration lies between the lower half-unit and the upper unit.

[2] = Comparison with 2-phenyl-indole, vinyl chloride-vinylidene chloride co-polymer, 210° C.; details: 0.3 part
Method: A second test was made using the following compound:
The sheets were heated in a ventilated oven at 210° C. and the following results were obtained: […]

[3] = Comparison with 2-phenyl-indole, vinyl chloride-vinyl acetate co-polymer, 185° C.; details: 0.3 part
Method: (c) Comparison with 2-phenyl-indole
A comparative test was made using the following compound:
The sheets were heated in a ventilated oven at 185° C. and the following results were obtained: […]

[4] = Photostabilizing power, sheets exposed to the sun, co-polymer (a)
Method: (§1) The sheets were exposed to the sun and their colorations were also determined according to the GARDNER method.

[5] = Colour of the resin after each passage in a blower-extruder
Method: (2) Examination of the colour of the resin after each passage (3 in all) in a blower-extruder, the mould being a 250 ml cylindrical flask.
Four resins where tested, the first containing 0.2% of 2-phenyl-indole and the others 0.2%, 0.03% and 0.015% of compound 1 respectively.

[6] = Static thermostability (GARDNER method), rigid PVC sheets, 210° C., 0.3 part stabilizer; details: 0 min
Method in brief: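 Rigid sheets calendered at 160° C. from powdered PVC resin with 0.3 part by weight stabilizer (dihydropyridine or 2-phenyl-indole reference) plus usual ingredients. Sheets heated in oven at 210° C., removed every three minutes over 21 minutes until incipient carbonization. Coloration scored against GARDNER scale reference figures.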

[7] = Static thermostability (GARDNER method), rigid PVC sheets, 185° C., equimolecular quantities; details: 1.55×10^-3 mol
Method: This study was carried out according to the GARDNER method, described in British Pat. No. 1,489,685.
The reference substance was 2-phenyl-indole, a well-known and widely used stabilizer.
The stabilizer (dihydropyridine or 2-phenyl-indole) and the other usual ingredients were mixed with powdered vinyl resins and the mixtures were calendered at a temperature of 160° C. to give rigid sheets.
The sheets were then heated in a thermostated oven (185° C. or 210° C.) for different intervals of time until incipient carbonization.
The coloration of the samples was compared to a standard scale of coloration, known as the GARDNER scale and was expressed in terms of the reference figures of the GARDNER scale.
This study was carried out with the following resin:
Polyvinyl chloride resin
SL 2016 is a solution of zinc-2-ethyl-hexanoate in a mixture of hydrocarbons boiling between 158° C. and 184° C.
Finally, a trail was performed at 185° C., with resins containing equimolecular quantities of the dihydropyridines or of 2-phenyl-indole, namely 1.55×10^-3 mol. In this case too, the samples were removed from the oven every 6 minutes over a period of 24 minutes and then every 3 minutes until the 42nd minute (or until carbonization).

[8] = Photostabilizing power, sheets exposed to the sun, rigid co-polymer (b)
Method: as §1

[9] = Static thermostability (GARDNER method), rigid PVC sheets, 185° C., 0.3 part stabilizer
Method in brief: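 Rigid PVC sheets, calendered at 160° C with 0.3 part stabilizer and usual additives, were heated at 185° C. Samples came out every 6 min to 24 min, then every 3 min up to 42 min or carbonization, and colour was scored on the GARDNER scale.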

c1ccc(-c2cc3ccccc3[nH]2)cc1 [2-Phenyl-indole, 2-phenyl-indole, reference compound]
Coloration of the plates GARDNER [1]: 3 | coloration, GARDNER scale ([2]; 0 min): 2 and 1 | coloration, GARDNER scale ([2]; 3 min): 2 and 1 | coloration, GARDNER scale ([2]; 6 min): 5 and 4 | coloration, GARDNER scale ([2]; 9 min): 8.5 and 10 | coloration, GARDNER scale ([2]; 12 min): 14 and 15 | coloration, GARDNER scale ([2]; 15 min): 16 | coloration, GARDNER scale ([3]; 0 min): 1 | coloration, GARDNER scale ([3]; 2 min): 1 | coloration, GARDNER scale ([3]; 4 min): 2 | coloration, GARDNER scale ([3]; 6 min): 3 | coloration, GARDNER scale ([3]; 8 min): 8 | coloration, GARDNER scale ([3]; 10 min): 12 | coloration, GARDNER scale ([3]; 12 min): 14 | coloration, GARDNER scale ([3]; 14 min): 17 | Colour in GARDNER degrees ([4]; After 24 hours): 6 GARDNER degrees and 8 GARDNER degrees | Colour in GARDNER degrees ([4]; Time 0): 1 GARDNER degrees | colour of the flask ([5]; after the second passage): blue color tending towards green | colour of the flask ([5]; after the third passage): greenish-blue | coloration, GARDNER scale [6]: 1 | coloration, GARDNER scale ([7]; 0 min): 1 | coloration, GARDNER scale ([7]; 6 min): 2 | coloration, GARDNER scale ([7]; 12 min): 3 | coloration, GARDNER scale ([7]; 18 min): 10 | coloration, GARDNER scale ([7]; 24 min): 13 | coloration, GARDNER scale ([7]; 27 min): 14 | coloration, GARDNER scale ([7]; 30 min): 14 | coloration, GARDNER scale ([7]; 33 min): 14 | coloration, GARDNER scale ([7]; 36 min): 16 | coloration, GARDNER scale ([7]; 39 min): 16 | coloration, GARDNER scale ([7]; 42 min): Burnt | Colour in GARDNER degrees ([8]; After 24 hours): 17 GARDNER degrees and 13 GARDNER degrees | Colour in GARDNER degrees ([8]; Time 0): 1.5 GARDNER degrees and 1 GARDNER degrees | coloration, GARDNER scale ([9]; 0 min): 1 | coloration, GARDNER scale ([9]; 6 min): 1 | coloration, GARDNER scale ([9]; 12 min): 3 and 4 and 5 | coloration, GARDNER scale ([9]; 24 min): 13 and 11 | coloration, GARDNER scale ([9]; 27 min): 14 and 13 | coloration, GARDNER scale ([9]; 30 min): 15 and 14 | coloration, GARDNER scale ([9]; 33 min): 15 and 14 | coloration, GARDNER scale ([9]; 36 min): 16 and 14 and 15 | coloration, GARDNER scale ([9]; 39 min): 16 and 15

— patent publication US4317768A, “Dihydropyridine derivatives as stabilizers for vinyl chloride polymers” (priority 1977, dated 1982)
